Reference: US10441659B2, “Lipids for therapeutic agent delivery formulations” (Nitto Denko Corporation, priority 2012, dated 2019)

Experiments:
gp46 mRNA in pHSC [1] = assay: In vitro (pHSC) gp46 knockdown by siRNA liposome formulations, qRT-PCR; type: cell-based; conditions: @ 20 nM
Procedure: In Vitro (pHSC, Gp46 KD @ 20 nM) Efficacy
PHSCs in 96-well plate were incubated with formulation that composed of either ionizable lipid formulation C104, ionizable lipid formulation Tu104, or combination formulations with different ratio of ionizable lipids (C104:Tu104). After 30 minutes, medium was replaced with fresh growth medium. Forty eight hours later, cells were lysed and gp46 and GAPDH mRNA levels measured by quantitative RT-PCR (TaqMan®) assay, and gp46 levels were normalized to GAPDH levels. Normalized gp46 levels were expressed as percent of mock control cells. Error bars indicate standard deviations (n=3). Results are depicted in FIG. 1.
Transfection method is same for LX-2 and pHSCs. The liposome formulations or lipoplex formulations of the description were mixed with growth medium at desired concentrations. 100 μl of the mixture was added to the cells in 96-well plate and cells were incubated for 30 min at 37° C. in the incubator with 5% CO2. After 30 min, medium was replaced with fresh growth medium. After 48 h of transfection, cells were processed using Cell-to-Ct lysis reagents (Applied Biosystems) according to the manufacturer's instructions.
HSP47 and GAPDH TaqMan®® assays and One-Step RT-PCR master mix were purchased from Applied Biosystems. Each PCR reaction contained the following composition: One-step RT-PCR mix 5 μl, TaqMan® RT enzyme mix 0.25 μl, TaqMan® gene expression assay probe (HSP47) 0.25 μl, TaqMan® gene expression assay probe (GAPDH) 0.5 μl, RNase free water 3.25 μl, Cell lysate 0.75 μl, Total volume of 10 μl. GAPDH was used as endogenous control for the relative quantification of HSP47 mRNA levels. Quantitative RT-PCR was performed in ViiA 7 realtime PCR system (Applied Biosciences). All values were normalized to the average HSP47 expression of the mock transfected cells and expressed as percentage of HSP47 expression compared to mock.

gp46 mRNA in pHSC [2] = assay: as above; type: cell-based
gp46 mRNA = assay: In vivo (DMNQ) efficacy, short-term liver damage model, liver gp46 mRNA; set-up: species or system male Sprague-Dawley rats; conditions: single IV dose, liver 24 h after
Procedure: In vivo activity of target formulation was evaluated in the short-term liver damage model (referred to as the Quick Model or DMNQ). In this model, the short-term liver damage induced by treatment with a hepatotoxic agent such as dimethylnitrosamine (DMN) is accompanied by the elevation of gp46 mRNA levels. To induce these changes, male Sprague-Dawley rats were injected intraperitoneally with DMN on six consecutive days. At the end of the DMN treatment period, the animals were randomized to groups based upon individual animal body weight. Formulations was administered as a single IV dose, one hour after the last injection of DMN. Twenty four hours after, liver lobes were excised and both gp46 and MRPL19 mRNA levels were determined by quantitative RT-PCR (TaqMan) assay. mRNA levels for gp46 were normalized to MRPL19 levels. Results are depicted in FIG. 4. Several combinations of ionizable:cationic lipids achieved 50% reduction in gene expression for a single, 0.5 mg per kg of animal body weight, dose of encapsulated siRNA.

HepG2 cells = assay: HepG2 cytotoxicity assay (CellTiter-Glo); type: cell-based, human; conditions: HepG2 @ 200 nM, 48 h post formulation addition, n=3
Procedure: In Vitro Toxicology Data, In Vitro Cytotoxicity (HepG2 @ 200 nM)
HepG2 cells, an adherent cell line derived from human hepatocellular carcinoma, was cultured in MEM/EBSS (Hyclone, Logan, Utah, Cat# SH30024.01) supplemented with 10% FBS (Hyclone, Logan, Utah Cat# SH30910). HepG2 cells were seeded in 96-well Optilux black plates (BD Falcon, Cat # BD353220) at 5000 cells/well overnight. Formulations were added to each well to final indicated siRNA concentration (n=3). At 48 h post formulation addition, cell viability was determined using CellTiter-Glo Luminescent Cell Viability Assay Kit (Promega, Cat #G7572) following manufacture's instruction. Chemiluminescent signal were measured on Clarity Luminescence Microplate Reader (502-Biotek, Winooski, Vt.). Viability was calculated based on % of chemiluminescent signal in formulation treated well normalized against mock treated wells.

Row | SMILES | in vitro (pHSC) % KD (gp46 mRNA in pHSC [1]) [% @ 20 nM] | in vitro (pHSC) % KD (gp46 mRNA in pHSC [2]; @ 50 nM) [% @ 50 nM] | also measured
1 | CCCCCCCC/C=C\CCCCCCCC(=O)OCCN(CCOC(=O)CCCCCCC/C=C\CCCCCCCC)C(=O)CCCCN(C)C [C104-DO, (Z)-((5-(dimethylamino)pentanoyl)azanediyl)bis(ethane-2,1-diyl) dioleate] | 32 |  | 
2 | CCCCCCCCCCCCCC(=O)OCCN(CCOC(=O)CCCCCCCCCCCCC)C(=O)OCCCN(C)C [CB104, (((3-(dimethylamino)propoxy)carbonyl)azanediyl)bis(ethane-2,1-diyl) ditetradecanoate] | 42 |  | 
3 | CCCCCCCCCCCCCC(=O)OCCN(CCOC(=O)CCCCCCCCCCCCC)C(=O)COC(=O)CCCN(C)C [HEDC- M1, ((2-((4-(dimethylamino)butanoyl)oxy)acetyl)azanediyl)bis(ethane-2,1-diyl) ditetradecanoate] | 53 |  | 
4 | CCCCCCCC/C=C\CCCCCCCC(=O)OCCN(CCOC(=O)CCCCCCC/C=C\CCCCCCCC)C(=O)CN(C)C [INT-4, (Z)-((2-(dimethylamino)acetyl)azanediyl)bis(ethane-2,1-diyl) dioleate] |  | 70 | 
5 | CCCCCCCCCCCCCC(=O)OCCN(CCOC(=O)CCCCCCCCCCCCC)C(=O)CCCCN(C)C [Lipid C104, ((5-(dimethylamino)pentanoyl)azanediyl)bis(ethane-2,1-diyl) ditetradecanoate] | 53 |  | in vivo (rat DMNQ) % KD (gp46 mRNA; @ 0.5 mpk): 75% @ 0.5 mpk
6 | CCCCCCCCCCCCCC(=O)OCCN(CCOC(=O)CCCCCCCCCCCCC)C(=O)COCCN(C)C [Lipid O104, ((2-(2-(dimethylamino)ethoxy)acetyl)azanediyl)bis(ethane-2,1-diyl) ditetradecanoate] | 55 |  | 
7 | CCCCCCCCCCCCCC(=O)OCCN(CCOC(=O)CCCCCCCCCCCCC)C(=O)CSCCN(C)C [Lipid S104, ((2-((2-(dimethylamino)ethyl)thio)acetyl)azanediyl)bis(ethane-2,1-diyl) ditetradecanoate] |  | 68 | in vivo (rat DMNQ) % KD (gp46 mRNA; @ 0.5 mpk): 52% @ 0.5 mpk; % viability (HepG2 cells): 52%
8 | CCCCCCCCCCCCCC(=O)OCCN(CCOC(=O)CCCCCCCCCCCCC)C(=O)c1ccc(CN(C)C)s1 [Lipid T104, ((5-((dimethylamino)methyl)thiophene-2-carbonyl)azanediyl)bis(ethane-2,1-diyl) ditetradecanoate] | 58 |  | 
9 | CCCC/C=C/CCCCCCCC(=O)OCCN(CCOC(=O)CCCCCCC/C=C/CCCC)C(=O)CSCCN(C)C [S104-DMO, (9Z,9′Z)-((2-((2-(dimethylamino)ethyl)thio)acetyl)azanediyl)bis(ethane-2,1-diyl) bis(tetradec-9-enoate)] |  |  | in vitro (pHSC) % KD (gp46 mRNA in pHSC [2]; @ 10 nM): 40% @ 10 nM
10 | CCCCCCCC/C=C\CCCCCCCC(=O)OCCN(CCOC(=O)CCCCCCC/C=C\CCCCCCCC)C(=O)CSCCN(C)C [S104-DO, (Z)-((2-((2-(dimethylamino)ethyl)thio)acetyl)azanediyl)bis(ethane-2,1-diyl) dioleate] | 78 |  | in vivo (rat DMNQ) % KD (gp46 mRNA; @ 0.5 mpk): 65% @ 0.5 mpk
11 | CCCCCCCCCCCCCC(=O)OCCN(CCOC(=O)CCCCCCCCCCCCC)C(=O)CS(=O)(=O)CCN(C)C [SO2-S104, ((2-((2-(dimethylamino)ethyl)sulfonyl)acetyl)azanediyl)bis(ethane-2,1-diyl) ditetradecanoate] | 75 |  | in vivo (rat DMNQ) % KD (gp46 mRNA; @ 0.5 mpk): 18% @ 0.5 mpk
12 | CCCCCCCCCCCCCC(=O)OCCN(CCOC(=O)CCCCCCCCCCCCC)C(=O)SCCN(C)C [TU104, ((((2-(dimethylamino)ethyl)thio)carbonyl)azanediyl)bis(ethane-2,1-diyl) ditetradecanoate] | 76 |  | 
13 | CCCCCCCC/C=C\CCCCCCCC(=O)OCCN(CCOC(=O)CCCCCCC/C=C\CCCCCCCC)C(=O)SCCN(C)C [TU104-DO, (Z)-((((2-(dimethylamino)ethyl)thio)carbonyl)azanediyl)bis(ethane-2,1-diyl) dioleate] | 81 |  | in vivo (rat DMNQ) % KD (gp46 mRNA; @ 0.25 mpk): 40% @ 0.25 mpk
14 | CCCCCCCCCCCCCC(=O)OCCN(CCOC(=O)CCCCCCCCCCCCC)C(=O)CN(C)C [i-DC, ((2-(dimethylamino)acetyl)azanediyl)bis(ethane-2,1-diyl) ditetradecanoate] |  |  | in vitro (pHSC) % KD (gp46 mRNA in pHSC [2]; @ 200 nM): 89% @ 200 nM
15 | CCCCCCCC/C=C\CCCCCCCC(=O)OCCN(CCOC(=O)CCCCCCC/C=C\CCCCCCCC)C(=O)CCN(C)C [i-Et- DODC, (Z)-((3-(dimethylamino)propanoyl)azanediyl)bis(ethane-2,1-diyl) dioleate] |  | 43 | 
16 | CCCCCCCCCCCCCC(=O)OCCN(CCOC(=O)CCCCCCCCCCCCC)C(=O)CCN(C)C [i-Et-DC, ((3-(dimethylamino)propanoyl)azanediyl)bis(ethane-2,1-diyl) ditetradecanoate] |  | 65 | 
17 | CCCCCCCC/C=C\CCCCCCCC(=O)OCCCN(CCCOC(=O)CCCCCCC/C=C\CCCCCCCC)C(=O)CN(C)C [i-Pr- DODC, (Z)-((2-(dimethylamino)acetyl)azanediyl)bis(propane-3,1-diyl) dioleate] |  | 60 | 
18 | CCCCCCCCCCCCCC(=O)OCCCN(CCCOC(=O)CCCCCCCCCCCCC)C(=O)CN(C)C [i-Pr-DC, ((2-(dimethylamino)acetyl)azanediyl)bis(propane-3,1-diyl) ditetradecanoate] |  | 53 | 
19 | CCCCCCCCCCCCCC(=O)OCCN(CCOC(=O)CCCCCCCCCCCCC)C(=O)CCCN(C)C [i-Prop- DC, ((4-(dimethylamino)butanoyl)azanediyl)bis(ethane-2,1-diyl) ditetradecanoate] | 54 | 55 | 
20 | CCCCCCCC/C=C\CCCCCCCC(=O)OCCN(CCOC(=O)CCCCCCC/C=C\CCCCCCCC)C(=O)CCCN(C)C [i-Prop- DODC, (Z)-((4-(dimethylamino)butanoyl)azanediyl)bis(ethane-2,1-diyl) dioleate] | 27 | 55 | 
